Blank lines part the entries; values can stand above or below the molecule they belong to.
Legend:
[1] = Physical consistency of samples noted at ambient temperature; assay type: physicochemical; settings: when placed into DSC pan
Excerpt: (§1) The procedure of Example 30 was followed using the mixed C12-ene-NMG:C12-ene-NMX samples described in Example 24.
The procedure of Example 30 was followed using the mixed C15-ene-NMG:C15-ene-NMX samples described in Example 25.
The procedure of Example 30 was followed using the mixed CCO-NMG:CCO-NMX samples described in Example 37.

[2] = Thermal transition determination via DSC, -40° C. program (procedure of Example 30); assay type: physicochemical; settings: for T Intercept-2 / T Peak Max-2: peak 2
Protocol: (§2) A Tzero Hermetic pan & lid was charged with ˜10-15 mg mixed material sample described in Examples 22. A Direct Scanning Coulometer, DSC Q2000 V24.9 was used to determine thermal transitions. The following temperature profile was used to obtain the data: ambient temperature cooled to −40° C. at 20° C./min, −40° C. to 160° C. at 20° C./min. The T intercept is defined as the temperature where the extrapolated slope of the initial curve of a peak intercepts the interpolated baseline of that peak. T Peak Max is defined as the temperature at the peak (inflection point) of a given curve.
Temperature program: Ambient temperature to −40° C. at 20° C./min, −40° C. to 140° C. at 20° C./min.
as §1
The procedure of Example 30 was followed using the mixed C15-ene-NMG:C15-ene-NMX samples described in Example 25. […]
The procedure of Example 30 was followed using the mixed NMHG:NMHX samples described in Example 46.

[3] = Krafft Point analysis, Phase Technology NK60-KPA Analyzer (Diffusive Light Scattering); assay type: physicochemical; settings: 1 wt % solutions of C12-NMG and C12-NMX in deionized water mixed by volume
Protocol: Krafft Point analysis was performed on a Phase Technology® NK60-KPA Analyzer that used a Diffusive Light Scattering (DLS) detection method. A 1 wt % solution was prepared in deionized water and 0.150 ml of this solution was added to the sample cell of the instrument at room temperature (20-25° C.). The following heating and cooling cycle was executed on the sample. Samples were warmed to 40° C. at a ramp rate of 5° C./min and held for 30 seconds. Next, Samples were cooled to −20° C. at a rate of −10° C./min and held for 60 seconds. Samples were then warmed to 0° C. at a rate of 5° C./min, held for 0 seconds, warmed to 30° C. at a rate of 2° C./min, held for 0 seconds and lastly warmed to 40° C. at a rate of 5° C./min.
Data was recorded as crystal count (y-axis) versus temperature (x-axis). […] During final warming cycle, when crystal count returned to original baseline, the temperature at that point was recorded as the Krafft point.
(§3) 1 wt % solutions of each of the materials in the table below were tested. […] A volume of 0.150 mL of this mixture was then analyzed via the Phase Technology® NK60-KPA Analyzer.
as §3

[4] = Visual melting point determination (capillary melting point apparatus); assay type: physicochemical; settings: for Ending MP: transparent gel to liquid
Excerpt: A Kimax −51 capillary tube (size 1.5−1.8×90 mm) was charged with the mixed C12-NMG:C12-NMX samples described in Example 22 to afford ˜½ inch sample bed. A Tomas Hoover Capillary Melting Point Apparatus was used to determine melting points visually. The Starting Melting Point (MP) is defined as the temperature (° C.) when the initial white opaque solid has completed the transition to a transparent gel. The Ending Melting Point (MP) is defined as the temperature (° C.) when the transparent gel transitions to liquid.
The procedure of Example 27 was followed using the mixed C12-NMG:C12-NMGly samples described in Example 23.

[5] = Thermal transition determination via DSC, -20° C. to 160° C. at 20° C./min; assay type: physicochemical; settings: C12-NMG:C12-NMX; for T Intercept / T Peak Max: peak 1; for T Intercept-3 / T Peak Max-3: peak 3
Protocol: as §2, with “transitions. A DSC is able to detect phase transitions within a material that might not be visible to the naked eye.” for “transitions.”, “−20°” for “−40°”
Temperature program: Ambient temperature to −20° C. at 20° C./min, −20° C. to 160° C. at 20° C./min.

[6] = literature values; cited from earlier work
[7] = C15-ene-NMG:C15-ene-NMX, peak 1, ** = No peak was observed
[8] = C12-ene-NMG:C12-ene-NMX, peak 1, ** = No peak was observed
[9] = C12-NMG:C12-NMX blends by weight
[10] = C12-NMG:C12-NMX blends by weight, white opaque solid to transparent gel
[11] = C12-NMG:C12-NMGly blends by weight

Molecule: CCC=CCCCCCCCC(=O)N(C)C[C@H](O)[C@@H](O)[C@H](O)[C@H](O)CO [Example C12-ene-NMG, N-(9-Dodecenoyl)-N-Methylglucamine]
- physical consistency of sample [1]: powders
- T Intercept [2, 8]: 67.0 °C
- T Peak Max [2, 8]: 78.7 °C
- T Intercept-2 ([2]; C12-ene-NMG:C12-ene-NMX): 106.1 °C
- T Peak Max-2 ([2]; C12-ene-NMG:C12-ene-NMX): 108.5 °C

Molecule: CCCCCCCCCCCC(=O)N(C)CC(O)C(O)C(O)CO (centres unmarked) [Example C12-NMX, N-Dodecanoyl-N-Methylxylamine]
- Ending MP [4, 9]: 96.6 °C
- Starting MP [4, 10]: 76 °C
- T Intercept [5]: 69.7 °C
- T Peak Max [5]: 77.0 °C
- T Intercept-3 [5]: 95.6 °C
- T Peak Max-3 [5]: 97.2 °C
- initial melting point (Zhu et al) [6]: 74-75 °C

Molecule: N-Methylglucamine [Example 1]
- Krafft Point [3]: 20 °C

Molecule: CCCCCCCCCCCC(=O)N(C)C[C@H](O)[C@@H](O)[C@H](O)[C@H](O)CO [Example C12-NMG, N-Dodecanoyl-N-Methylglucamine]
- Ending PM [4, 11]: 127.2 °C
- Starting MP [4, 11]: 96.8 °C
- Ending MP [4, 9]: 129.8 °C
- Starting MP [4, 10]: 96 °C
- T Intercept ([2]; C12-NMG:C12-NMGly, peak 1): 82.0 °C
- T Peak Max ([2]; C12-NMG:C12-NMGly, peak 1): 94.7 °C
- T Intercept-2 ([2]; C12-NMG:C12-NMGly): 137.0 °C
- T Intercept [5]: 84.1 °C
- T Peak Max [5]: 94.7 °C
- T Intercept-3 [5]: 136.7 °C
- T Peak Max-3 [5]: 137.9 °C
- initial melting point (Zhu et al) [6]: 90.5-91.5 °C

Molecule: CCCCCCCCCCCC(=O)N(C)CC(O)CO (centres unmarked) [Example C12-NMGly, N-Dodecanoyl-(3-methylamino-1,2-propanediol)]
- Ending PM [4, 11]: 52.8 °C
- Starting MP [4, 11]: 46.3 °C
- T Intercept ([2]; C12-NMG:C12-NMGly, peak 1): 44.5 °C
- T Peak Max ([2]; C12-NMG:C12-NMGly, peak 1): 49.6 °C
- T Intercept-2 ([2]; C12-NMG:C12-NMGly): 117.2 °C
- initial melting point (Zhu et al) [6]: 40-40.5 °C

Other lines, results leading:

- physical consistency of sample [1]: waxy in nature
- T Intercept [2, 7]: 27.5 °C
- T Peak Max [2, 7]: 38.8 °C
- T Intercept-2 ([2]; C15-ene-NMG:C15-ene-NMX): 113.0 °C
- T Peak Max-2 ([2]; C15-ene-NMG:C15-ene-NMX): 115.5 °C
Molecule: CCCCCC=CCCCCCCCC(=O)N(C)CC(O)C(O)C(O)CO (centres unmarked) [Example C15-ene-NMX, N-(9-Pentadecenoyl)-N-Methyl-Xylamine]

- T Intercept ([2]; NMHG:NMHX blends by weight): 73.8 °C
- T Peak Max ([2]; NMHG:NMHX blends by weight): 79.0 °C
Molecule: N-Methyl Hexyl Glucamine [NMHG]

- T Intercept ([2]; NMHG:NMHX blends by weight): 48.6 °C
- T Peak Max ([2]; NMHG:NMHX blends by weight): 52.3 °C
Molecule: CCCCCCN(C)C[C@H](O)[C@@H](O)[C@H](O)CO [NMHX, N-Methyl Hexyl Xylamine]

- Krafft Point [3]: 37 °C
Molecule: CCCCCCCCCCCC(=O)N(C)C[C@H](O)[C@@H](O)[C@H](O)[C@H](O)CO [Solution 13, N-Dodecanoyl-N-Methylglucamine]

- physical consistency of sample [1]: waxy in nature
- T Intercept [2, 8]: 26.0 °C
- T Peak Max [2, 8]: 28.6 °C
- T Intercept-2 ([2]; C12-ene-NMG:C12-ene-NMX): 86.2 °C
- T Peak Max-2 ([2]; C12-ene-NMG:C12-ene-NMX): 89.5 °C
Molecule: CCC=CCCCCCCCC(=O)N(C)CC(O)C(O)C(O)CO (centres unmarked) [Example C12-ene-NMX, N-(9-Dodecenoyl)-N-Methylxylamine]

- T Intercept [2, 7]: 64.1 °C
- T Peak Max [2, 7]: 77.9 °C
- T Intercept-2 ([2]; C15-ene-NMG:C15-ene-NMX): 144.6 °C
- T Peak Max-2 ([2]; C15-ene-NMG:C15-ene-NMX): 146.2 °C
Molecule: CCCCCC=CCCCCCCCC(=O)N(C)C[C@H](O)[C@@H](O)[C@H](O)[C@H](O)CO [Example C15-ene-NMG, N-(9-Pentadecenoyl)-N-Methylglucamine]

— patent US20140255330A1, “Mixed Sugar Compositions” (THE PROCTER & GAMBLE COMPANY, priority 2013, published 2014)
